Reference: the NIST ThermoML archive (doi:10.1021/acs.jced.6b00855)
Numbers after ± are expanded uncertainties. Values belong to the compound of their own block, whether it stands above or below them.

Test: refractive index (Na D-line) (dimensionless); wn = mass fraction of the nth substance listed
Settings: 288.15 K, 100 kPa, Liquid, Standard Abbe refractometry

refractive index (w1 = 0.5794): 1.4892 ± 0.0004
SMILES: [Br-].[Br-].[Ca+2] [calcium bromide] + O

refractive index (w1 = 0.4075): 1.4428 ± 0.0004
SMILES: [Ca+2].[Cl-].[Cl-] [calcium chloride] + O

refractive index (w1 = 0.5929): 1.4744 ± 0.0004
SMILES: [Br-].[Li+] [lithium bromide] + O

refractive index (w1 = 0.4395): 1.4343 ± 0.0004
SMILES: [Cl-].[Li+] [lithium chloride] + O
